Test results from US8318950B2, “N-acyl amino acid derivatives, a method for the preparation thereof, a pharmaceutical composition and use thereof as anti-allergic, anti-inflammatory and hypolipidemic agents” (Otkrytoe Aktsionernoe Obschestvo-Otechestvennye Lekarstva, priority 2005, dated 2012).

How the values were obtained:
[1] = tested on: guinea pig blood basophils; experiment: In vitro ovalbumin (OA)-induced blood basophil degranulation of immunized guinea pig; format: cell-based
Procedure: Leukocytes from guinea pig blood were isolated according to the Freemel's method [Immunologicheskiye Metody under edition of G. Frimel/Moscow., “Meditsina” publishers, 1987, p. 222 in the inventor's modification].
Guinea pigs of both sexes weighing from 600 to 800 g were used to conduct the test. The animals were once immunized with a mixture of 10 μg ovalbumin and 100 mg aluminum hydroxide per one animal according to Andersson [Anderson P. Antigen-induced bronchial anaphylaxis in actively sensitized guinea-pigs.//Allergy. 1980. Vol. 35. P. 63-71].
Under ester anesthesia, 15 ml blood were drawn from guinea pig heart. Double precipitation of cells using EDTA and a citrate-containing precipitating liquid was used to isolate basophils in the leukocyte suspension.
Blood was mixed with 5% EDTA.Na2 2H2O (“Sigma”) solution at 9:1 ratio and in 30 minutes it was subjected to mild centrifugation (for 12 minutes at 80 g). Supernatant was collected and centrifuged for 15 minutes at 500 g.
To the remaining cells, a citrate-containing precipitating liquid (3) was added at proportion 3:10 (it was thermostated at 37° C. for 30 minutes). A supernatant fraction enriched by leukocytes was centrifuged for 7 minutes at 100 g. To leukocyte precipitate, 0.85% NaCl solution was added and cellular concentration was brought to 30×10^3 μl.
Protocol of the in vitro basophil degranulation test [Spravochnil po klinicheskim laboratomym metodam issledovaniya (A reference book on clinical-laboratory examination methods)/Edited by E. A. Cost/Moscow, “Meditsina” publishers, 1975, p. 130].
For the test, a centrifuge tube (3 tubes per each sample) was filled with 300 μl cellular suspension, then salt solution of a tested compound (or a salt solution in the control of spontaneous and maximum degranulation) was added and pre-incubated at 37° C. for 15 minutes, then into each tube 300 μl 1% OA solution was added (in the control of spontaneous degranulation a salt solution in the same amount was added) and once more pre-incubated at 37° C. for 10 minutes. Functional leukocyte concentration was 10^4/μl. Samples (100 μl) were taken off from each tube into separate tubes to assess a complete basophil degranulation, and to the remained cells, a cooled salt solution was added (5 ml into each tube) to arrest degranulation reaction, then the tubes were centrifuged for 7 min at 100 g, and from precipitate, preparations for microscopy were prepared. The preparations were fixed and stained according to the method of Seder et al. [Seder R. A. et al. Mouse splenic and bone marrow cell populations that express high—affinity Fcε receptors and produce interleukin-4 are highly enriched in basophils.//Proc. Natl. Acad. USA, 1991, V. 88, P. 2835-2839].
In order to detect a specific basophil granulation, the dye 0.5% alcyanic blue (pH 1.0) was used, nuclei were additionally stained with safranin (0.1% solution in 1% acetic acid). The preparations were used to assess a total degranulation inhibition.
A total degranulation inhibition (DI) (%) was calculated according to the formula: […]
max—% of degranulated basophils at the maximum degranulation (OA)
spontaneous—% of degranulated basophils in spontaneous degranulation (control)
experimental—% of degranulated basophils following exposure to the tested compound.
Assessment of a Complete Basophil Degranulation
Samples selected following basophil degranulation test (100 μl each) were poured into tubes with the dye (0.5% alcyane blue, pH 1.0) at ratio 1:1. Staining was carried out at room temperature for not less than 50 min. Stained basophils were calculated using the Fooks-Rosenthal chamber. Inhibition of a complete basophil degranulation (ICD) was calculated according to the formula: ICD(%)=1−[(Mm(c)−Mm(exper.)]/Mm(c)−Mm(OA)]×100, wherein
M m (c)—mean (by three samples) basophil number in the spontaneous basophil degranulation test
M±m (OA)—mean (by three samples) basophil number in the maximum antigen-induced basophil degranulation test; […]

[2] = tested on: Sephadex A-25 induced pneumonitis in Wistar rats; experiment: Sephadex-induced (6-day) pneumonitis in rats; format: in vivo, rat
Procedure: The Model of Sephadex-Induced (6-Day) Pneumonitis in Rats
Male Wistar rats weighing 270-300 g were used in the tests.
Inflammation in the lungs was induced by a single inhalation of sephadex A-25 (hydrophilic powder with particle sizes from 20 to 80 μm) at dose 5 mg/kg using a dosing device which is a laboratory analog of the inhaler “Cyclohaler” (the Scientific-Research Institute for Pulmonology of the RF).
Sephadex A-25 at dose 5 mg per 1 kg body weight was administered to rats under ester anesthesia using an original dosing device for inhalation administering dry powders. Following administration of Sephadex A-25, Wistar rats rapidly recovered form anesthesia, and no peculiarities in their behavior and respiration character were noted. The substances in the form of a dry powder were administered by inhalation at dose 500 μg/kg 1 hour post Sephadex administration, then for 5 days in succession once daily at one and the same morning hours. The control was represented by two groups: a group of intact animals, and a group of rats administered once with Sephadex by inhalation.
The results of therapeutic action of pharmacological substances on pneumonitis development were assessed using morphological and morphometric parameters (volume density and alveolitis) 6 days post aerosol Sephadex administration.
Histological examinations of the lungs stained by hematoxyline and eosine.
4-5 μm thick histological lung slices were prepared wherein neutrophil number was calculated as well as volume density of alveolitis and emphysema was assessed using the Avtandilov's mesh [Avtandilov G. G., Vvedeniye v kolichestvennuyu pathologicheskuyu morphologiyu.//Moscow. “Meditsina” publishers. 1980. p. 203]. Morphometric examination of pulmonary lymphoid tissue was also carried out. To this end, micro preparations of the lungs were fixed according to the method of Beinenstock et al [Bienenstock J., Johnson N., Perey D. Y. E. Bronchial lymphoid tissue 1. Morphologic characteristics//Lab. Invest. 1973. v. 28 p. 693-698.] […] Volume density of alveolitis and emphysema was determined using the point calculation method.
Broncho-alveolar wash-off was obtained in rats and guinea pigs under hexenal anesthesia by double washing the lungs through the trachea with 10 ml normal saline. Viability of cells was determined in the test with tryptane blue. Absolute number of cells in 1 ml (cytosis) was determined in the broncho-alveolar wash-off liquid (BAW) using the Goryaev's chamber. In the smears of the BAW liquid precipitate obtained using centrifugation at 200 g for 10 minutes and then stained according to Romanovskcy-Gimza, endopulmonary cytogram was calculated (in percent) [Avtsyn A. P., Lukomskij G. I., Romanova L. K. et al. Endopul'monal'naya cytogramma.//Sov. […]

[3] = tested on: endogenous hypercholesterolemia in guinea pigs; experiment: Model of endogenous hypercholesterolemia in guinea pigs (fat loading); format: in vivo, guinea pig; conditions: during 20 days, doses from 50 to 1,500 μg/kg

SMILES: O=C(O)CCCC(=O)N[C@@H](Cc1c[nH]cn1)C(=O)O [Compound IV, N^α-glutaryl-L-histidine]
- Number of completely degranulated basophils ([1]; 10^−3 M): 2.6 ± 2.6 %
- Number of completely degranulated basophils ([1]; 10^−4 M): 2.9 ± 1.6 %
- Number of completely degranulated basophils ([1]; 10^−5 M): 0%
- Number of completely degranulated basophils ([1]; 10^−6 M): 3.9 ± 0.6%
- Number of completely degranulated basophils ([1]; 10^−7 M): 9.1 ± 0.8%
- inhibition at 1000 µM ([1]; Cavia porcellus, 10^−3 M, read-out: Complete degranulation inhibition (CDI)): 99.2 ± 11.2%
- inhibition at 100 µM ([1]; Cavia porcellus, 10^−4 M, read-out: Complete degranulation inhibition (CDI)): 99.5 ± 12%
- inhibition at 10 µM ([1]; Cavia porcellus, 10^−5 M, read-out: Complete degranulation inhibition (CDI)): 114 ± 2.7%
- inhibition at 1 µM ([1]; Cavia porcellus, 10^−6 M, read-out: Complete degranulation inhibition (CDI)): 90 ± 1.8%
- inhibition at 0.1 µM ([1]; Cavia porcellus, 10^−7 M, read-out: Complete degranulation inhibition (CDI)): 76.7 ± 1.5%
- degranulation inhibition in the test of complete OA-induced degranulation ([1]; calcium free medium): ~100%
- emphysema (histological examination of the lungs) ([2]; 500 μg/kg by inhalation): not practically detected
- infiltration of interalveolar septa with neutrophils ([2]; 500 μg/kg by inhalation): not noted
- prevalence of alveolitis (histological examination of the lungs) ([2]; compared to the model group, 500 μg/kg by inhalation): significantly lower
- Absolute number of Macrophags in 1 μl BAW ([2]; dry powder by inhalation 500 μg/kg): 152.4 ± 18.5 cells in 1 μl BAW
- lowering total cholesterol level at different doses (FIG. 1) [3]: practically similarly effective in lowering total cholesterol level
